Patent US20090203775A1, “Novel compound and a novel microorganism for producing the novel compound” (Haiyi Biotech Pte, Ltd., priority 2005, published 2009)

Experiments:
[1] = test system: Veo cells; assay: Half toxic concentration in the antiviral test cells; format: cell-based
Method: (§1) Methods: The Veo cells were cultured in 96-well plates. The cells were infected with Coxsakie B3 virus for 2 hours after 24 hours of incubation. The solution containing the virus was then discarded. The samples were then added into the wells at the concentrations with the appropriate controls. The cell pathological extent (CPE) was observed 36 hours later. The half inhibitory concentration (IC50) was calculated by using the method of Reed-Muench.
(§2) (1) “-” means that the sample has no anti Coxsakie B3 virus effect at the maximal dose with no toxicity. (2) TC50 indicates the half toxic concentration; IC50 indicates the half inhibitory concentration for the virus; SI indicates the selective index, calculated as the follow: SI=TC50/IC50

[2] = test system: MGC (human stomach cancer cells); assay: MTT assay, percentage of killing, MGC; format: cell-based; details: 24~48 hours
Method: (§3) 1. Method: 3-[4,5-dimethyl(thiazol-2-yl)-3,5-diphery] tetradium bromide (MTT) assay. 2. Culture medium: RPMI-1640 medium containing 2% calf serum 3. Apparatus: (1) CO2 incubator, Sherton USA; (2) 318MC Enzyme analysis machine, SANCO Equipments Company Ltd. 4. Conditions of the culture: Temp. 37° C.; Concentration of CO2: 4.7%, culture duration: 24˜48 hours.

[3] = test system: A2780 (human ovary cancer cells); assay: MTT assay, percentage of killing, A2780; format: cell-based; details: 24~48 hours
Method: as §3

[4] = test system: Coxsakie B3 virus; assay: in vitro; format: cell-based; details: Coxsakie B3 virus in Veo cells
Method: Treatment of the sample: The sample was first dissolved in DMSO to appropriate concentration. The sample solutions were then diluted the samples in culture medium solution to obtain eight concentrations.
as §1, §2

[5] = test system: human stomach cancer cells MGC-803; assay: Nude mouse transplanted with human stomach cancer MGC-803, tumor growth inhibition; format: in vivo, BALB/cA nude mice
Method: Aim: To observe the growth inhibitory effect and the intensity of the effect of the compound of formula (I) in nude mouse transplanted with human stomach cancer cells MGC803.
Material: The lyophilized injection powder of the compound of formula (I), 15 mg/vial, diluted to the needed concentration by 0.9% saline before use.
Dosages: the dosages of the compound of formula (I) are 15, 10 and 5 mg/kg.
Animals: BALB/cA nude mice, female, 40˜45-days old, body weight is 18±2 g. The number of the animals in per group: negative control: 12; group with drug: 6.
Transplanted tumor: Human stomach cancer MGC-803 cells were transplanted into the nude mice as follows. Approximately half a million […] of the MGC-803 cells was injected subcutaneously (s.c.) into the mice. The tumors were used after breeding the mice for three generations.
Methods: Tumors in peak growth were cut into the sizes of around 1.5 mm^3. Under aseptic conditions the tumours were injected subcutaneously to the right axilla of the mouse. The size of the transplanted tumor is then measure and the animals randomly divided into several groups when the size of the tumor reaches 100-200 mm^3. The drug is administered by intravenous (i.v.) injection on the 1st and 6th days. Saline is administered as control. The size of the tumor is examined every two weeks together with the weight of the mouse. The tumor volume(TV) is calculated as:
Where, a and b represent length and width, respectively. The relative tumor volume (RTV) is calculated as: RTV=Vt/V0, where V0 is the volume of the tumor before administering the compound, Vt is the volume of the tumor after administering the compound. The index for evaluating the activity of anticancer is the relative growth rate of tumor (T/C), which is calculated as: […]
wherein, TRTV is the administering group; CRTV is the control group.
The standard for evaluating the treatment effect: T/C (%)>60% means no effect, T/C<=60% and p<0.05 means having a significant effect.

[6] = test system: L1210, a kind of lymph leukemia cell; assay: Ex vivo treatment of L1210 cells, then i.p. injection into mice; format: in vivo, BDF-1 mice
Method: Control: 6 BDF-1 mice, male, administer to each mouse 1×10^8 L1210, a kind of lymph leukemia cell, by intraperitoneal (i.p.) injection, (without the compound of formula (I) treatment); results are shown in FIG. 11.
Ex vivo test group: 6 BDF-1 mice, male, administer to each mouse 1×10^8 L1210 cells by i.p. injection, wherein the L1210 were treated with the compound of formula (I). The method of treating cells ex vivo: The concentration of the lyophilized powder injection of the compound of formula (I) is 7.5 mg/ml. It was diluted to 150 ug/ml with saline solution. A volume of 67 ul of the diluted injection solution is mixed with 1.5 ml L1210 cells and 0.433 ml saline to obtain in each […] of L1210 cells to contain 5 ug the compound. The mixture is placed at the room temperature for two hours.

[7] = test system: T. mentagrophytes; assay: Germicidal effect, MTT assay, T. mentagrophytes; format: cell-based
Method: Aims: To observe the germicidal effect of the compound of formula (I) on T. rubrum, T. mentagrophytes, C. albicans and B. subtilis. Method: […] Concentration of the samples were: (1) 2 mg/ml; (2) 1 mg/ml; (3) 0.5 mg/ml; (4) 0.25 mg/ml; Volume of the sample: 50 ul/well.

[8] = test system: Eca-109 (esophageal cancer cells); assay: MTT assay, percentage of killing, Eca-109; format: cell-based; details: for percentage of killing: MTT, 24~48 hours
Method: as §3

SMILES: O=C1CC[C@H](c2ccc(O)c3c2C(=O)C2OC2[C@H]3O)c2cccc(O)c21 (stereo partly shown) [compound of formula (I)]
- TC50 (half toxic concentration) [1]: 24.7 µg/mL
- percentage of killing ([2]; 312.5 ng/ml): 0%
- percentage of killing ([2]; 625 ng/ml): 40.98%
- percentage of killing ([2]; 1.25 ug/ml): 42.32%
- percentage of killing ([2]; 2.5 ug/ml): 64.37%
- percentage of killing ([2]; 5 ug/ml): 85.52%
- percentage of killing ([3]; A2780, 312.5 ng/ml): 0%
- percentage of killing ([3]; A2780, 625 ng/ml): 35.31%
- percentage of killing ([3]; A2780, 1.25 ug/ml): 46.5%
- percentage of killing ([3]; A2780, 2.5 ug/ml): 73.08%
- percentage of killing ([3]; A2780, 5 ug/ml): 90.91%
- selectivity ratio at 36 h ([4]; African green monkey, Veo cells infected with Coxsakie B3 virus, read-out: SI (selective index, TC50/IC50)): 2.88
- IC50 ([4]; CPE after 36 hours, Reed-Muench, read-out: IC50 (half inhibitory concentration for the virus)): 8.56 µg/mL
- growth inhibitory effect (in words) ([5]; 15 mg/kg on day 1 and day 6, i.v., T/C<=60% and p<0.05 means significant effect): significant growth inhibitory effect
- weight(g) final ([5]; 15 mg/kg, d 1, d 6, i.v., lyophilized powder, body weight of mice, final): 17.2 g
- weight(g) Initial ([5]; 15 mg/kg, d 1, d 6, i.v., lyophilized powder, body weight of mice, initial): 18.3 g
- T/C (%) ([5]; 15 mg/kg, d 1, d 6, i.v., relative growth rate of tumor, TRTV/CRTV x 100): 0.18%
- RTV ([5]; 15 mg/kg, d 1, d 6, i.v., relative tumor volume Vt/V0): 0.02 ± 4.3
- complete disappearance of tumor ([5]; 15 mg/kg, d 1, d 6, i.v., three weeks after the treatment, 6 mice): the tumor in one mouse disappeared completely
- TV(mm^3) d 0 ([5]; 15 mg/kg, d 1, d 6, i.v., tumor volume before treatment): 102 ± 22 mm^3
- TV(mm^3) d 21 ([5]; 15 mg/kg, d 1, d 6, i.v., tumor volume d 21): 2.2 ± 0.04 mm^3
- duration of survival ([6]; 6 BDF-1 mice given 1×10^8 L1210 cells i.p., cells treated ex vivo with 5 ug compound, two hours, room temperature, controls died at 12-15 days): after 60 days
- others (symptoms) ([6]; 6 BDF-1 mice given compound-treated L1210 cells i.p.): no symptom
- killing of L1210 ex vivo (in words) ([6]; L1210 treated ex vivo with 5 ug compound, two hours, room temperature): killed completely
- Gemicidal effect (killing rate) ([7]; 12.5 μg/ml): 60%
- Gemicidal effect (killing rate) ([7]; 25 μg/ml): 82%
- Gemicidal effect (killing rate) ([7]; 50 μg/ml): 99.5%
- Gemicidal effect (killing rate) ([7]; 100 μg/ml): 100%
- percentage of killing ([8]; Eca-109, 312.5 ng/ml): 0%
- percentage of killing ([8]; Eca-109, 625 ng/ml): 0%
- percentage of killing ([8]; Eca-109, 1.25 ug/ml): 0%
- percentage of killing ([8]; Eca-109, 2.5 ug/ml): 0%
- percentage of killing ([8]; Eca-109, 5 ug/ml): 0.18%
- effect on Eca-109 (in words) ([8]; Eca-109, MTT): no effect
